According to the supplement of paper PMC10307832:

Key:
Test in all cases: relative viability (nuclei count vs DMSO), 5 days (fraction); higher = more cells survive
[1] = system: NCI-H1437
Procedure, shortened: (§1)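 A single step with final 0.05% Triton X-100, 1% formaldehyde and 1 ug/ml Hoechst fixed the cells and stained nuclei 5 days after treatment. Lung cancer cell lines in 1536-well plates had been treated by pin tool the day after seeding with one drug alone or a fixed anchor-drug dose plus five library-drug doses (not always all listed) in √10 steps, and nuclei were counted on 4× images. Relative viability is the ratio of nuclei in treated wells to nuclei in vehicle wells, taken as the median of duplicate plates.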

[2] = system: SK-MES-1
Procedure, shortened: as §1

[3] = system: NCI-H358
Procedure, shortened: as §1

[4] = system: HCC-78
Procedure, shortened: as §1

[5] = system: PC-14
Procedure, shortened: as §1

[6] = system: NCI-H661
Procedure, shortened: as §1

[7] = system: HCC-44
Procedure, shortened: as §1

[8] = system: HCC-827
Procedure, shortened: as §1

[9] = system: NCI-H727
Procedure, shortened: as §1

[10] = system: SK-LU-1
Procedure, shortened: as §1

[11] = system: NCI-H1944
Procedure, shortened: as §1

[12] = system: ChaGo-K-1
Procedure, shortened: as §1

[13] = system: NCI-H2342
Procedure, shortened: as §1

[14] = system: LCLC-103H
Procedure, shortened: as §1

[15] = system: UMC-11
Procedure, shortened: as §1

[16] = system: HCC-366
Procedure, shortened: as §1

[17] = system: NCI-H2085
Procedure, shortened: as §1

[18] = system: EPLC-272H
Procedure, shortened: as §1

[19] = system: COR-L 105
Procedure, shortened: as §1

[20] = system: HCC-15
Procedure, shortened: as §1

[21] = system: NCI-H3122
Procedure, shortened: as §1

Compound: COCC1(CO)C(=O)C2CCN1CC2 (stereo not drawn) [PRIMA-1MET] + O=C(CCCCCCC(=O)Nc1ccccc1)NO [Vorinostat] (partner 1 µM)
- relative viability ([1]; first compound 0.2 µM): 0.951
- relative viability ([1]; first compound 0.6325 µM): 0.685
- relative viability ([1]; first compound 2 µM): 0.792
- relative viability ([1]; first compound 6.325 µM): 0.939
- relative viability ([1]; first compound 20 µM): 0.776
- relative viability ([2]; first compound 0.2 µM): 1.26
- relative viability ([2]; first compound 0.6325 µM): 1.08
- relative viability ([2]; first compound 2 µM): 1.05
- relative viability ([2]; first compound 6.325 µM): 1.24
- relative viability ([2]; first compound 20 µM): 1.18
- relative viability ([3]; first compound 0.2 µM): 0.82
- relative viability ([3]; first compound 0.6325 µM): 0.695
- relative viability ([3]; first compound 2 µM): 0.669
- relative viability ([3]; first compound 6.325 µM): 0.786
- relative viability ([3]; first compound 20 µM): 0.163
- relative viability ([4]; first compound 0.2 µM): 0.624
- relative viability ([4]; first compound 0.6325 µM): 0.407
- relative viability ([4]; first compound 2 µM): 0.392
- relative viability ([4]; first compound 6.325 µM): 0.403
- relative viability ([4]; first compound 20 µM): 0.102
- relative viability ([5]; first compound 0.2 µM): 0.722
- relative viability ([5]; first compound 0.6325 µM): 0.755
- relative viability ([5]; first compound 2 µM): 0.728
- relative viability ([5]; first compound 6.325 µM): 0.777
- relative viability ([5]; first compound 20 µM): 0.019
- relative viability ([6]; first compound 0.2 µM): 0.853
- relative viability ([6]; first compound 0.6325 µM): 0.771
- relative viability ([6]; first compound 2 µM): 0.774
- relative viability ([6]; first compound 6.325 µM): 0.816
- relative viability ([6]; first compound 20 µM): 0.759
- relative viability ([7]; first compound 0.2 µM): 1.08
- relative viability ([7]; first compound 0.6325 µM): 1.03
- relative viability ([7]; first compound 2 µM): 1.18
- relative viability ([7]; first compound 6.325 µM): 1.18
- relative viability ([7]; first compound 20 µM): 1.06
- relative viability ([8]; first compound 0.2 µM): 0.939
- relative viability ([8]; first compound 0.6325 µM): 0.173
- relative viability ([8]; first compound 2 µM): 0.661
- relative viability ([8]; first compound 6.325 µM): 0.816
- relative viability ([8]; first compound 20 µM): 0.855
- relative viability ([9]; first compound 0.2 µM): 0.732
- relative viability ([9]; first compound 0.6325 µM): 0.394
- relative viability ([9]; first compound 6.325 µM): 1.17
- relative viability ([9]; first compound 20 µM): 0.689
- relative viability ([10]; first compound 0.2 µM): 0.852
- relative viability ([10]; first compound 0.6325 µM): 0.761
- relative viability ([10]; first compound 2 µM): 0.839
- relative viability ([10]; first compound 6.325 µM): 0.673
- relative viability ([10]; first compound 20 µM): 0.561
- relative viability ([11]; first compound 0.2 µM): 0.724
- relative viability ([11]; first compound 0.6325 µM): 0.4
- relative viability ([11]; first compound 2 µM): 0.428
- relative viability ([11]; first compound 6.325 µM): 0.531
- relative viability ([11]; first compound 20 µM): 0.539
- relative viability ([12]; first compound 0.2 µM): 0.858
- relative viability ([12]; first compound 0.6325 µM): 0.431
- relative viability ([12]; first compound 2 µM): 0.627
- relative viability ([12]; first compound 6.325 µM): 0.743
- relative viability ([12]; first compound 20 µM): 0.709
- relative viability ([13]; first compound 0.2 µM): 0.694
- relative viability ([13]; first compound 0.6325 µM): 0.913
- relative viability ([13]; first compound 6.325 µM): 0.748
- relative viability ([13]; first compound 20 µM): 0.607
- relative viability ([14]; first compound 0.2 µM): 0.76
- relative viability ([14]; first compound 0.6325 µM): 0.64
- relative viability ([14]; first compound 2 µM): 0.558
- relative viability ([14]; first compound 6.325 µM): 0.771
- relative viability ([14]; first compound 20 µM): 0.793
- relative viability ([15]; first compound 0.2 µM): 0.422
- relative viability ([15]; first compound 0.6325 µM): 0.358
- relative viability ([15]; first compound 2 µM): 0.385
- relative viability ([15]; first compound 6.325 µM): 0.477
- relative viability ([15]; first compound 20 µM): 0.479
- relative viability ([16]; first compound 0.2 µM): 0.596
- relative viability ([16]; first compound 0.6325 µM): 0.252
- relative viability ([16]; first compound 2 µM): 0.249
- relative viability ([16]; first compound 6.325 µM): 0.336
- relative viability ([16]; first compound 20 µM): 0.0291
- relative viability ([17]; first compound 0.2 µM): 1.06
- relative viability ([17]; first compound 0.6325 µM): 0.776
- relative viability ([17]; first compound 2 µM): 0.706
- relative viability ([17]; first compound 6.325 µM): 0.798
- relative viability ([17]; first compound 20 µM): 0.154
- relative viability ([18]; first compound 0.2 µM): 0.536
- relative viability ([18]; first compound 0.6325 µM): 0.581
- relative viability ([18]; first compound 2 µM): 0.417
- relative viability ([18]; first compound 6.325 µM): 0.534
- relative viability ([18]; first compound 20 µM): 0.0678
- relative viability ([19]; first compound 0.2 µM): 1.13
- relative viability ([19]; first compound 0.6325 µM): 0.859
- relative viability ([19]; first compound 2 µM): 0.769
- relative viability ([19]; first compound 6.325 µM): 0.771
- relative viability ([19]; first compound 20 µM): 0.196
- relative viability ([20]; first compound 0.2 µM): 0.962
- relative viability ([20]; first compound 0.6325 µM): 0.798
- relative viability ([20]; first compound 2 µM): 0.887
- relative viability ([20]; first compound 6.325 µM): 0.871
- relative viability ([20]; first compound 20 µM): 0.758
- relative viability ([21]; first compound 0.2 µM): 1.01
- relative viability ([21]; first compound 0.6325 µM): 0.861
- relative viability ([21]; first compound 2 µM): 0.686
- relative viability ([21]; first compound 6.325 µM): 1.07
- relative viability ([21]; first compound 20 µM): 0.861
